Assay results reported in PubChem BioAssay AID1963839 (Molecular Pharmacology Branch, DTP, NCI, 2024).
pIC50: −log10 of the molar value.

Test system: 817829-284-R-J1-PDC complex spheroid viability
Test: Anticancer human tumor 817829-284-R-J1-PDC patient-derived colon adenocarcinoma cell line growth inhibition [POLQ]
Settings: for pIC50: curve of first compound; for viability, T/C: stronger effect = lower value
Method in brief: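 Complex spheroid viability model combining PDC tumour cells with endothelial (HUVEC) and MSC stromal cells. Novobiocin, ART-558 or RP6685 were tested singly and in combination with standard and investigational anticancer drugs. Each was titrated in half-log steps from near clinical Cmax, or from 10 microM where Cmax was unknown.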

[1] = second compound 0.0316 µM, first compound 0.0316 µM
[2] = second compound 0.0316 µM, first compound 0.1 µM
[3] = second compound 0.0316 µM, first compound 0.316 µM
[4] = second compound 0.0316 µM, first compound 1 µM
[5] = second compound 0.0316 µM, first compound 3.16 µM
[6] = second compound 0.0316 µM, first compound 10 µM
[7] = second compound 0.1 µM, first compound 0.0316 µM
[8] = second compound 0.1 µM, first compound 0.1 µM
[9] = second compound 0.1 µM, first compound 0.316 µM
[10] = second compound 0.1 µM, first compound 1 µM
[11] = second compound 0.1 µM, first compound 3.16 µM
[12] = second compound 0.1 µM, first compound 10 µM
[13] = second compound 0.316 µM, first compound 0.0316 µM
[14] = second compound 0.316 µM, first compound 0.1 µM
[15] = second compound 0.316 µM, first compound 0.316 µM
[16] = second compound 0.316 µM, first compound 1 µM
[17] = second compound 0.316 µM, first compound 3.16 µM
[18] = second compound 0.316 µM, first compound 10 µM
[19] = second compound 1 µM, first compound 0.0316 µM
[20] = second compound 1 µM, first compound 0.1 µM
[21] = second compound 1 µM, first compound 0.316 µM
[22] = second compound 1 µM, first compound 1 µM
[23] = second compound 1 µM, first compound 3.16 µM
[24] = second compound 1 µM, first compound 10 µM
[25] = second compound 3.16 µM, first compound 0.0316 µM
[26] = second compound 3.16 µM, first compound 0.1 µM
[27] = second compound 3.16 µM, first compound 0.316 µM
[28] = second compound 3.16 µM, first compound 1 µM
[29] = second compound 3.16 µM, first compound 3.16 µM
[30] = second compound 3.16 µM, first compound 10 µM
[31] = second compound 10 µM, first compound 0.0316 µM
[32] = second compound 10 µM, first compound 0.1 µM
[33] = second compound 10 µM, first compound 0.316 µM
[34] = second compound 10 µM, first compound 1 µM
[35] = second compound 10 µM, first compound 3.16 µM
[36] = second compound 10 µM, first compound 10 µM
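Also: spheroids exposed to compounds for 7 days.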
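For viability, T/C in this document: 100% = DMSO vehicle-treated spheroids.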

SMILES: CC1COCCN1c1cc(C2(S(C)(=N)=O)CC2)nc(-c2ccnc3[nH]ccc23)n1 (stereo not drawn) + Nc1ccc(C#CCN(C(=O)Cc2ncc(C(F)(F)F)cc2C(F)(F)F)c2ccc(F)cc2)nn1
- pIC50 (second compound 0.0316 µM): 6.50
- pIC50 (second compound 0.1 µM): 6.36
- pIC50 (second compound 0.316 µM): 6.39
- pIC50 (second compound 1 µM): 6.31
- pIC50 (second compound 3.16 µM): 6.33
- pIC50 (second compound 10 µM): 6.51
- viability, T/C [1]: 83.3%
- viability, T/C [2]: 74.2%
- viability, T/C [3]: 48.2%
- viability, T/C [4]: 25.8%
- viability, T/C [5]: 8.98%
- viability, T/C [6]: 4.09%
- viability, T/C [7]: 83.5%
- viability, T/C [8]: 82.1%
- viability, T/C [9]: 60.7%
- viability, T/C [10]: 21.9%
- viability, T/C [11]: 8.16%
- viability, T/C [12]: 4.21%
- viability, T/C [13]: 99.9%
- viability, T/C [14]: 86.6%
- viability, T/C [15]: 57.8%
- viability, T/C [16]: 24.6%
- viability, T/C [17]: 7.24%
- viability, T/C [18]: 5.14%
- viability, T/C [19]: 86.9%
- viability, T/C [20]: 87.2%
- viability, T/C [21]: 67.6%
- viability, T/C [22]: 20.4%
- viability, T/C [23]: 7.25%
- viability, T/C [24]: 5.6%
- viability, T/C [25]: 95.7%
- viability, T/C [26]: 83.7%
- viability, T/C [27]: 66%
- viability, T/C [28]: 22.3%
- viability, T/C [29]: 6.64%
- viability, T/C [30]: 4.14%
- viability, T/C [31]: 86.6%
- viability, T/C [32]: 76.3%
- viability, T/C [33]: 48.1%
- viability, T/C [34]: 23.1%
- viability, T/C [35]: 5.64%
- viability, T/C [36]: 5.25%

SMILES: CC1COCCN1c1cc(-c2ccnn2C)c2ccnc(-c3ccn[nH]3)c2n1 (stereo not drawn) + Cc1cccc(N(C)C(=O)C2C(O)CCN2c2nc(C)cc(C(F)(F)F)c2C#N)c1
- pIC50 (second compound 0.0316 µM): > 7.50
- pIC50 (second compound 0.1 µM): > 7.50
- pIC50 (second compound 0.316 µM): > 7.50
- pIC50 (second compound 1 µM): > 7.50
- pIC50 (second compound 3.16 µM): 7.49
- pIC50 (second compound 10 µM): > 7.50
- viability, T/C [1]: 36.6%
- viability, T/C [2]: 19.1%
- viability, T/C [3]: 6.76%
- viability, T/C [4]: 4.35%
- viability, T/C [5]: 3.09%
- viability, T/C [6]: 2.85%
- viability, T/C [7]: 33.4%
- viability, T/C [8]: 16.9%
- viability, T/C [9]: 7.78%
- viability, T/C [10]: 4.15%
- viability, T/C [11]: 3.55%
- viability, T/C [12]: 2.55%
- viability, T/C [13]: 45.2%
- viability, T/C [14]: 15.3%
- viability, T/C [15]: 6.75%
- viability, T/C [16]: 4.29%
- viability, T/C [17]: 3.67%
- viability, T/C [18]: 2.6%
- viability, T/C [19]: 33.9%
- viability, T/C [20]: 13.1%
- viability, T/C [21]: 5.41%
- viability, T/C [22]: 4.86%
- viability, T/C [23]: 3.3%
- viability, T/C [24]: 2.87%
- viability, T/C [25]: 50.8%
- viability, T/C [26]: 21.9%
- viability, T/C [27]: 5.75%
- viability, T/C [28]: 3.57%
- viability, T/C [29]: 3.34%
- viability, T/C [30]: 3.14%
- viability, T/C [31]: 36.6%
- viability, T/C [32]: 20%
- viability, T/C [33]: 7.43%
- viability, T/C [34]: 4.51%
- viability, T/C [35]: 3.57%
- viability, T/C [36]: 2.62%

SMILES: CC1COCCN1c1cc(-c2ccnn2C)c2ccnc(-c3ccn[nH]3)c2n1 (stereo not drawn) + Nc1ccc(C#CCN(C(=O)Cc2ncc(C(F)(F)F)cc2C(F)(F)F)c2ccc(F)cc2)nn1
- pIC50 (second compound 0.0316 µM): 7.34
- pIC50 (second compound 0.1 µM): 7.32
- pIC50 (second compound 0.316 µM): 7.38
- pIC50 (second compound 1 µM): 7.31
- pIC50 (second compound 3.16 µM): 7.27
- pIC50 (second compound 10 µM): 7.29
- viability, T/C [1]: 66.6%
- viability, T/C [2]: 15.1%
- viability, T/C [3]: 5.55%
- viability, T/C [4]: 3.95%
- viability, T/C [5]: 3.46%
- viability, T/C [6]: 3.51%
- viability, T/C [7]: 69.3%
- viability, T/C [8]: 16.2%
- viability, T/C [9]: 5.6%
- viability, T/C [10]: 3.72%
- viability, T/C [11]: 3.57%
- viability, T/C [12]: 2.68%
- viability, T/C [13]: 60.5%
- viability, T/C [14]: 16.4%
- viability, T/C [15]: 5.61%
- viability, T/C [16]: 3.98%
- viability, T/C [17]: 3.56%
- viability, T/C [18]: 2.61%
- viability, T/C [19]: 70.6%
- viability, T/C [20]: 15.2%
- viability, T/C [21]: 6.24%
- viability, T/C [22]: 4.01%
- viability, T/C [23]: 3.75%
- viability, T/C [24]: 3.12%
- viability, T/C [25]: 72.8%
- viability, T/C [26]: 23.1%
- viability, T/C [27]: 5.89%
- viability, T/C [28]: 4.04%
- viability, T/C [29]: 3%
- viability, T/C [30]: 3.74%
- viability, T/C [31]: 73.9%
- viability, T/C [32]: 16.9%
- viability, T/C [33]: 5.59%
- viability, T/C [34]: 3.74%
- viability, T/C [35]: 3.56%
- viability, T/C [36]: 2.98%

SMILES: O=c1[nH]cc(F)c(=O)[nH]1 + Nc1ccc(C#CCN(C(=O)Cc2ncc(C(F)(F)F)cc2C(F)(F)F)c2ccc(F)cc2)nn1
- pIC50 (second compound 0.0316 µM): 5.90
- pIC50 (second compound 0.1 µM): 5.75
- pIC50 (second compound 0.316 µM): 5.77
- pIC50 (second compound 1 µM): 5.80
- pIC50 (second compound 3.16 µM): 5.86
- pIC50 (second compound 10 µM): 5.89
- viability, T/C [1]: 99.6%
- viability, T/C [2]: 110%
- viability, T/C [3]: 95.6%
- viability, T/C [4]: 54.1%
- viability, T/C [5]: 34%
- viability, T/C [6]: 28.1%
- viability, T/C [7]: 96.4%
- viability, T/C [8]: 102%
- viability, T/C [9]: 84.4%
- viability, T/C [10]: 64.4%
- viability, T/C [11]: 35.8%
- viability, T/C [12]: 27%
- viability, T/C [13]: 100%
- viability, T/C [14]: 98.8%
- viability, T/C [15]: 93.3%
- viability, T/C [16]: 63.9%
- viability, T/C [17]: 34%
- viability, T/C [18]: 23.7%
- viability, T/C [19]: 108%
- viability, T/C [20]: 89.3%
- viability, T/C [21]: 93.5%
- viability, T/C [22]: 60.5%
- viability, T/C [23]: 33.7%
- viability, T/C [24]: 26.1%
- viability, T/C [25]: 86.2%
- viability, T/C [26]: 108%
- viability, T/C [27]: 77.2%
- viability, T/C [28]: 55.8%
- viability, T/C [29]: 38.1%
- viability, T/C [30]: 27.4%
- viability, T/C [31]: 92.1%
- viability, T/C [32]: 92.8%
- viability, T/C [33]: 85.5%
- viability, T/C [34]: 54.8%
- viability, T/C [35]: 33%
- viability, T/C [36]: 26.7%
